In assay [1] the test system is MCF-10A normal breast cell. Description: MTT cell growth inhibition assay, MCF-10A (normal). Type of assay: cell-based, human. The conditions noted are these: Homo sapiens, 48 h incubation, MCF-10A normal cells. The source says: (§1) All human cell lines were used in this study. MGC-803 late-stage differentiation gastric cancer cell, A549 lung cancer cell, HepG2 hepatoma cell, AGS gastric cancer cell, BEL-7402 liver cancer cell, HCT-116 colorectal cancer cell, HeLa cervical cancer cell, SGC-7901 early differentiation gastric cancer cell, L-02 normal liver cell, MCF-7 breast cancer cell, and MCF-10A normal breast cell were initially purchased from American Type Culture Collection (ATCC, Manassas, VA, USA). RPMI-1640 media, Dulbecco’s modified Eagle’s medium (DMEM), and foetal bovine serum (FBS) were provided from Gibco Company (Grand Island, NY, USA). The cells were maintained in DMEM or RPMI-1640, supplemented with 10% FBS, 100 IU/mL penicillin and […] (Grand Island, NY, USA), and at 37 °C in a humidified atmosphere containing 5% CO2.
(§2) Cells were plated in 96-well plates at a density of 30–40% to ensure exponential growth throughout the experimental period, and then allowed to adhere for 1 day[21]. Next, the cells were treated with four serial concentrations (1, 10, 50, and 100 µM) of each compound. Taxol, CA-4, and CA-4P (phosphorylated form of CA-4) were used as positive controls. After 48 h incubation, MTT solution was added to each well at a final concentration of 2 mg/mL, and incubated for an additional 4 h. Next, the MTT solution was removed and 150 µL of dimethyl sulphoxide (DMSO)/well was added (Sigma-Aldrich, St Louis, MO, USA). The plates were shaken vigorously at RT to ensure complete solubilisation, and absorption at 492 nm was determined.
(§3) According to standard protocol, preliminary in vitro anti-proliferative activities of the synthesised compounds were evaluated by MTT assay, using nine human cancer cell lines (MGC-803, A549, HepG2, AGS, BEL-7402, HCT116, HeLa, SGC-7901, and MCF-7) and two normal human cell lines (L-02 and MCF-10A), and compared with those of CA-4, CA-4P, and taxol.

For another assay, the system named is HCT116 cells. Description: MTT cell growth inhibition assay, HCT116. Type of assay: cell-based, human.
Text: as §1, §2, §3

The next assay has as its system A549 lung cancer cell. Description: MTT cell growth inhibition assay, A549. The class given is cell-based, human.
Text: as §1, §2, §3

For another assay, the system named is HepG2 hepatoma cell. The assay can be described thus: MTT cell growth inhibition assay, HepG-2. Type of assay: cell-based, human.
Text: as §1, §2, §3

Assay [2] relates to HeLa cervical cancer cell. The assay can be described thus: MTT cell growth inhibition assay, HeLa. The class given is cell-based, human. The conditions noted are these: Homo sapiens, 48 h incubation.
Text: as §1, §2, §3

For a further assay, the system named is AGS cells. Description: MTT cell growth inhibition assay, AGS. Type of assay: cell-based, human.
Text: as §1, §2, §3

Assay [3] relates to BEL-7402 cells. The assay can be described thus: Analysis of apoptosis by flow cytometry (Annexin V-FITC/PI). The conditions noted are these: BEL-7402, 0.1 µM, 12 h; vehicle 4.7%. Type of assay: cell-based, human. As for the experimental part: Apoptosis was detected using an apoptosis detection kit. BEL-7402 cells were plated in 6-well plates (5.0 × 10^5 cells/well) and incubated at 37 °C overnight. Exponentially growing cells were then incubated with 6h at either 0.01 or 0.1 µM, or taxol at 0.1 µM. Vehicle group was treated with 0.1% DMSO. Following 12 h of incubation, cells were analysed for apoptosis as previously described, using a FACSCalibur flow cytometer with Cell Quest software (Becton-Dickinson, Franklin Lakes, NJ, USA).

For a further assay, the system named is MCF-7 breast cancer cell. The assay can be described thus: MTT cell growth inhibition assay, MCF-7. Type of assay: cell-based, human.
Text: as §1, §2, §3

Assay [4] relates to BEL-7402 cells. The assay can be described thus: MTT cell growth inhibition assay, BEL-7402. Type of assay: cell-based, human.
Text: as §1, §2, §3

Assay [5] relates to SGC-7901 early differentiation gastric cancer cell. Description: MTT cell growth inhibition assay, SGC-7901. Type of assay: cell-based, human. Conditions: Homo sapiens, 48 h incubation.
Text: as §1, §2, §3

A further assay concerns L-02 normal liver cell. Description: MTT cell growth inhibition assay, L-02 (normal). Type of assay: cell-based, human. Conditions: Homo sapiens, 48 h incubation, L-02 normal cells.
Text: as §1, §2, §3

The test system of a further assay is MGC-803 cells. Description: MTT cell growth inhibition assay, MGC-803. The conditions noted are these: for IC50: MTT, 48 h incubation, MGC-803. The class given is cell-based, human.
Text: as §1, §2, §3

In the next assay the test system is L-02 cells. Details: method as in PMID 27887843. Conditions: L-02, printed in Figure 1, previous experiment ref 2; cited from earlier work.
The test system of the next assay is HeLa cells. Details: method as in PMID 27887843. The conditions noted are these: printed in Figure 1, previous experiment ref 2; cited from earlier work.

The source of these data is PMC6161602, “Synthesis and characterisation of (Z)-styrylbenzene derivatives as potential selective anticancer agents” (Journal of Enzyme Inhibition and Medicinal Chemistry, 2018).

A word on the IC50: it is the concentration that gives 50% inhibition. As for `CC(=O)O[C@H]1C(=O)[C@@]2(C)[C@H]([C@H](OC(=O)c3ccccc3)[C@]3(O)C[C@H](OC(=O)[C@H](O)[C@@H](NC(=O)c4ccccc4)c4ccccc4)C(C)=C1C3(C)C)[C@]1(OC(C)=O)CO[C@@H]1C[C@@H]2O` [Taxol, reference compound], the IC50 in assay [1] was determined as 0.18 ± 0.02 µM; in the assay on HCT116 cells (Homo sapiens, HCT-116, MTT, 48 h incubation, HCT116), 0.03 ± 0.01 µM; in the assay on A549 lung cancer cell (Homo sapiens, MTT, 48 h incubation, A549) it was 0.44 ± 0.02 µM; in the assay on HepG2 hepatoma cell (Homo sapiens, HepG2, MTT, 48 h incubation, HepG-2) it was 0.94 ± 0.03 µM; in [2] it was 13 ± 0.47 µM; with AGS cells (Homo sapiens, MTT, 48 h incubation, AGS), 0.02 ± 0.01 µM. For the same compound, the IC50 with MCF-7 breast cancer cell (Homo sapiens, MCF7, MTT, 48 h incubation, MCF-7) was 0.08 ± 0.01 µM; in the assay on BEL-7402 cells [4] (Homo sapiens, MTT, 48 h incubation, Bel-7402) it was 0.09 ± 0.02 µM; in [5] it was greater than 100 µM; in the assay with L-02 normal liver cell, greater than 100 µM; in the assay on MGC-803 cells (Homo sapiens, MGC-803, 48 h), less than 0.06 µM; in the assay on MGC-803 cells, 0.06 ± 0.01 µM. For the same compound, the “SI IC50 (L-02/HCT116)” value in the assay with HCT116 cells (selectivity index, IC50 (L-02)/IC50 (HCT116)) is listed as greater than 3333. The “SI IC50 (L-02/A549)” value in the assay with A549 lung cancer cell (selectivity index, IC50 (L-02)/IC50 (A549)) is recorded as greater than 227.2. The “SI IC50 (L-02/HepG-2)” value with HepG2 hepatoma cell (selectivity index, IC50 (L-02)/IC50 (HepG-2)) is given as greater than 106.3. Further, the “SI IC50 (L-02/AGS)” value in the assay with AGS cells (selectivity index, IC50 (L-02)/IC50 (AGS)) is reported as greater than 5000. Also, in the assay on BEL-7402 cells [3], the “total apoptotic cells (early + late apoptotic cells)” value was 10.7%. The “SI IC50 (MCF-10A/MCF-7)” value in the assay with MCF-7 breast cancer cell (selectivity index, IC50 (MCF-10A)/IC50 (MCF-7)) is reported as greater than 2.2. Moreover, in the assay with BEL-7402 cells [4] (selectivity index, IC50 (L-02)/IC50 (BEL-7402)), the “SI IC50 (L-02/BEL-7402)” value is on record as greater than 1111. Moreover, the “SI IC50 (L-02/MGC-803)” value in the assay on MGC-803 cells (selectivity index, IC50 (L-02)/IC50 (MGC-803)) is reported as greater than 1666.
In the case of `CCOc1ccc(/C=C(\C#N)c2cc(OC)cc(OC)c2)cc1` [Compound 3], the values for the IC50 in the assay on L-02 cells and in the assay with HeLa cells were greater than 100 µM and 7.7 µM, respectively.
